According to ChEMBL document CHEMBL1128159, “Synthesis and evaluation of diacylhydrazines as inhibitors of the interleukin-1 converting enzyme (ICE)” (Bioorg Med Chem Lett, 1995):
Where a SMILES comes first, the peptide text is derived from it.

How the values were obtained:
Caspase-1 (Homo sapiens) = biological target: T1, Caspase-1 (Homo sapiens) (UniProt P29466); experiment: Compound was tested for inhibition of IL-1 beta converting enzyme by measuring second order rate of inactivation
T1 sequence (whole entry): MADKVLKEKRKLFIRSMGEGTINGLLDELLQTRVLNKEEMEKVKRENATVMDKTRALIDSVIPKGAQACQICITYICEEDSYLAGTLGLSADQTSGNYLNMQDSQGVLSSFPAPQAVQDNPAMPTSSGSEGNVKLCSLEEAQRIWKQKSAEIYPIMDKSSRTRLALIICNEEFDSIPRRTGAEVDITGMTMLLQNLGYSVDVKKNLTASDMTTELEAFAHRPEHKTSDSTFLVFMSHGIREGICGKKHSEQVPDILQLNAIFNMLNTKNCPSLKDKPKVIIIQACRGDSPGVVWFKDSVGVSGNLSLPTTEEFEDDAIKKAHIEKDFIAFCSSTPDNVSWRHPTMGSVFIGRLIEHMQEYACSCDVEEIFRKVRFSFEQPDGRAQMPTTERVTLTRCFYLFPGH

[1] = Half life of compound in ICE assay buffer (1 mM glutathione) at […] degree C; assay type: ADME; details: ICE assay buffer with 1 mM glutathione
[2] = Half life of compound in ICE assay buffer (1 mM dithiothreitol) at 25 degree C (89% intact after 120 h); assay type: ADME; details: ICE assay buffer with 1 mM dithiothreitol
[3] = Half life of compound in ICE assay buffer (1 mM dithiothreitol) at 25 degree C (98% intact after 120 h); assay type: ADME; details: ICE assay buffer with 1 mM dithiothreitol
[4] = Half life of compound in ICE assay buffer (1 mM dithiothreitol) at 25 degree C; assay type: ADME; details: ICE assay buffer with 1 mM dithiothreitol

CC(C)[C@H](NC(=O)OCc1ccccc1)C(=O)N[C@@H](C)C(=O)N[C@@H](CC(=O)O)C(=O)COP(=O)(c1ccccc1)c1ccccc1
second-order inactivation rate constant (kobs/[I]) (Caspase-1 (Homo sapiens)): 118000 M⁻¹ s⁻¹
half-life [1]: 0.96 h

CC(C)[C@H](NC(=O)OCc1ccccc1)C(=O)N[C@@H](C)C(=O)NN(CC(=O)O)C(=O)CCl
second-order inactivation rate constant (kobs/[I]) (Caspase-1 (Homo sapiens)): 27300 M⁻¹ s⁻¹
half-life [2]: > 120 h
half-life [1]: 3.5 h

CC(C)[C@H](NC(=O)OCc1ccccc1)C(=O)N[C@@H](C)C(=O)NN(CC(=O)O)C(=O)COP(=O)(c1ccccc1)c1ccccc1
second-order inactivation rate constant (kobs/[I]) (Caspase-1 (Homo sapiens)): 19400 M⁻¹ s⁻¹
half-life [1]: 130 h
half-life [3]: > 120 h

CC(C)[C@H](NC(=O)OCc1ccccc1)C(=O)N[C@@H](C)C(=O)NC(CC(=O)O)C(=O)COC1=C(Cc2ccccc2)C(=O)OC1 (some centres undefined)
second-order inactivation rate constant (kobs/[I]) (Caspase-1 (Homo sapiens)): 290000 M⁻¹ s⁻¹

CC(C)[C@H](NC(=O)OCc1ccccc1)C(=O)N[C@@H](C)C(=O)NN(CC(=O)O)C(=O)COc1cc(C(F)(F)F)nn1-c1ccccc1
second-order inactivation rate constant (kobs/[I]) (Caspase-1 (Homo sapiens)): 470 M⁻¹ s⁻¹

CC(C)[C@H](NC(=O)OCc1ccccc1)C(=O)N[C@@H](C)C(=O)NN(CC(=O)O)C(=O)COC1=C(Cc2ccccc2)C(=O)OC1
second-order inactivation rate constant (kobs/[I]) (Caspase-1 (Homo sapiens)): 120 M⁻¹ s⁻¹

CC(C)[C@H](NC(=O)OCc1ccccc1)C(=O)N[C@@H](C)C(=O)NN(CC(=O)O)C(=O)COC(=O)c1c(Cl)cccc1Cl
second-order inactivation rate constant (kobs/[I]) (Caspase-1 (Homo sapiens)): 700 M⁻¹ s⁻¹

CC(C)[C@H](NC(=O)OCc1ccccc1)C(=O)N[C@@H](C)C(=O)N[C@@H](CC(=O)O)C(=O)CCl (HELM PEPTIDE1{[O=C(OCc1ccccc1)[*:2]].V.A.D.[ClC[*:1]]}$$$$V2.0)
half-life [4]: 0.25 h

CC(C)[C@H](NC(=O)OCc1ccccc1)C(=O)N[C@@H](C)C(=O)NN(CC(=O)O)C(=O)CBr
second-order inactivation rate constant (kobs/[I]) (Caspase-1 (Homo sapiens)): 1640 M⁻¹ s⁻¹
